From patent publication US9365576B2, “Pyrrolopyrrolidinone compounds” (Novartis AG, priority 2012, dated 2016)

Each compound was assayed against human MDM2 protein (amino acids 2-188) (Homo sapiens (Human), UniProt Q00987) (assay: TR-FRET assay, p53-MDM2 Assay 2 (modified)). Details: TR-FRET; 0.1 nM MDM2, 0.1 nM Europium labeled streptavidin, Tecan genios Pro reader; read-out: IC50 p53-MDM2 Assay 2.
Assay type: binding
Method in brief: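 IC50 values were curve-fitted from the time-resolved 665/620 nm emission ratio after 340 nm excitation. The assay combined 0.625 nM europium-streptavidin donor with 1.25 nM C-terminally biotinylated MDM2 2–188 (15 min, RT), followed by 15 min with 10 nM Cy5-labeled p53 18–26 acceptor peptide.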

human MDM2 protein (amino acids 2-188), sequence (Q00987 2-188): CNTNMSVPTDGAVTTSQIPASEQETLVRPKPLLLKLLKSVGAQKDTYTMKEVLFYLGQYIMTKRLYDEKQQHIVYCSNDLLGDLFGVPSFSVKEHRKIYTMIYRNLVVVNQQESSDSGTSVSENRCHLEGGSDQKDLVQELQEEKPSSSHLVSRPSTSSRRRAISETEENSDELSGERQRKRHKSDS

IC50	Compound
188 pM	COc1nc(N(C)C)ncc1-c1cc2c(n1C(C)C)C(c1ccc(C#N)cc1)N(c1cccc(Cl)c1F)C2=O (centres unmarked) [Example 94, 4-[5-(3-Chloro-2-fluoro-phenyl)-2-(2-dimethylamino-4-methoxy-pyrimidin-5-yl)-1-isopropyl-4-oxo-1,4,5,6-tetrahydro-pyrrolo[3,4-b]pyrrol-6-yl]-benzonitrile]
194 pM	COc1nc(N(C)C)ncc1-c1cc2c(n1C(C)C)C(c1ccc(C#N)cc1)N(c1cc(Cl)ccc1C)C2=O (centres unmarked) [Example 95, 4-[5-(5-Chloro-2-methyl-phenyl)-2-(2-dimethylamino-4-methoxy-pyrimidin-5-yl)-1-isopropyl-4-oxo-1,4,5,6-tetrahydro-pyrrolo[3,4-b]pyrrol-6-yl]-benzonitrile]
1950 pM	COc1ccccc1-c1cc2c(n1C(C)C)C(c1ccc(Cl)cc1)N(c1cc(Cl)ccc1C#N)C2=O (centres unmarked) [Example 96, 4-Chloro-2-[6-(4-chloro-phenyl)-1-isopropyl-2-(2-methoxy-phenyl)-4-oxo-4,6-dihydro-1H-pyrrolo[3,4-b]pyrrol-5-yl]-benzonitrile]
378 pM	CNC(=O)c1ccc(OC)c(-c2cc3c(n2C(C)C)C(c2ccc(Cl)cc2)N(c2cc(Cl)ccc2C#N)C3=O)c1 (centres unmarked) [Example 97, 3-[5-(5-Chloro-2-cyano-phenyl)-6-(4-chloro-phenyl)-1-isopropyl-4-oxo-1,4,5,6-tetrahydro-pyrrolo[3,4-b]pyrrol-2-yl]-4-methoxy-N-methyl-benzamide]
316 pM	COc1ncc(-c2cc3c(n2C(C)C)C(c2ccc(Cl)cc2)N(c2cc(Cl)ccc2C#N)C3=O)c(OC)n1 (centres unmarked) [Example 98, 4-Chloro-2-[6-(4-chloro-phenyl)-2-(2,4-dimethoxy-pyrimidin-5-yl)-1-isopropyl-4-oxo-4,6-dihydro-1H-pyrrolo[3,4-b]pyrrol-5-yl]-benzonitrile]
1440 pM	COc1nc(N)ncc1-c1cc2c(n1C(C)C)C(c1ccc(Cl)cc1)N(c1cc(Cl)ccc1C#N)C2=O (centres unmarked) [Example 99, 2-[2-(2-Amino-4-methoxy-pyrimidin-5-yl)-6-(4-chloro-phenyl)-1-isopropyl-4-oxo-4,6-dihydro-1H-pyrrolo[3,4-b]pyrrol-5-yl]-4-chloro-benzonitrile]
316 pM	COc1nc(N(C)C)ncc1-c1cc2c(n1C(C)C)C(c1ccc(Cl)cc1)N(c1cc(Cl)ccc1C#N)C2=O (centres unmarked) [Example 100, 4-Chloro-2-[6-(4-chloro-phenyl)-2-(2-dimethylamino-4-methoxy-pyrimidin-5-yl)-1-isopropyl-4-oxo-4,6-dihydro-1H-pyrrolo[3,4-b]pyrrol-5-yl]-benzonitrile]
15300 pM	COc1ccccc1-c1cc2c(n1C(C)C)C(c1ccc(Cl)cc1C)N(C1CCOCC1)C2=O (centres unmarked) [Example 104, 6-(4-Chloro-2-methyl-phenyl)-1-isopropyl-2-(2-methoxy-phenyl)-5-(tetrahydro-pyran-4-yl)-5,6-dihydro-1H-pyrrolo[3,4-b]pyrrol-4-one]
904000 pM	COc1ncc(-c2cc3c(n2C(C)C)C(c2ccc(Cl)cc2)N(C2CCNCC2)C3=O)c(OC)n1 (centres unmarked) [Example 106, 6-(4-Chloro-phenyl)-2-(2,4-dimethoxy-pyrimidin-5-yl)-1-isopropyl-5-piperidin-4-yl-5,6-dihydro-1H-pyrrolo[3,4-b]pyrrol-4-one]
1600 pM	COc1ncc(-c2cc3c(n2C(C)C)C(c2ccc(Cl)cc2)N(C2CCC(=O)N(C)C2)C3=O)c(OC)n1 (centres unmarked) [Example 109, 6-(4-Chloro-phenyl)-2-(2,4-dimethoxy-pyrimidin-5-yl)-1-isopropyl-5-(1-methyl-6-oxo-piperidin-3-yl)-5,6-dihydro-1H-pyrrolo[3,4-b]pyrrol-4-one]
741 pM	COc1ncc(-c2cc3c(n2C(C)C)C(c2ccc(Cl)cc2)N(C2CN(C)C(=O)N(C)C2)C3=O)c(OC)n1 (centres unmarked) [Example 110, 6-(4-Chloro-phenyl)-2-(2,4-dimethoxy-pyrimidin-5-yl)-5-(1,3-dimethyl-2-oxo-hexahydro-pyrimidin-5-yl)-1-isopropyl-5,6-dihydro-1H-pyrrolo[3,4-b]pyrrol-4-one]
